In publication PMC9620171 (Journal of Medicinal Chemistry, 2022):
Like-named read-outs stand apart in the source and are kept apart here.

Legend:
[1] = Routes of elimination of pritelivir in humans; type: in vivo; details: yields pyridinyl phenyl acetic acid and amino thiazole sulfonamide
[2] = system: HSV; details: lead optimization; ref 11 and data on file; cited from earlier work
[3] = system: HSV-1; test: Murine lethal challenge assay, intranasal HSV-1 infection; type: in vivo, mice; details: using molar doses
[4] = system: HSV; details: four times daily swabbing; cited from earlier work
[5] = system: liver, heart muscle, kidney, macrophages, monocytes, T lymphocytes, fibroblasts, and neuronal cells; test: Cytotoxicity on a panel of different cell types; type: cell-based
[6] = system: HSV; details: rats; three daily oral doses, pritelivir 0.5 and 2 mg/kg, valacyclovir 45 and 135 mg/kg; cited from earlier work
[7] = system: bacterial reversion and mammalian cell chromosome aberration; test: Genotoxicity, standard ICH battery; type: cell-based; details: in vitro; free base and mesylate monohydrate examined
[8] = Pharmacokinetics after oral administration, rat; details: in vivo, 1 mg/kg, elimination half-life in rodents
[9] = system: HSV; details: pritelivir-resistant, plaque-purified virus, in vitro; cited from earlier work
[10] = system: HSV-1; details: cited from earlier work; for effectiveness on lesion score and virus shedding: wild-type HSV-1, postinfection day 1 to day 4
[11] = system: HSV-2; test: Murine lethal challenge assay, intranasal HSV-2 infection; type: in vivo, mice; details: using molar doses
[12] = Pharmacokinetics after oral administration, dog; details: in vivo, 1 mg/kg
[13] = lead optimization; ref 11 and data on file; cited from earlier work
[14] = system: HSV-1; details: oral, start 72 h postinfection; cited from earlier work
[15] = system: HSV-2; details: 10 and 30 mg/kg twice a day, start 72 h postinfection; cited from earlier work
[16] = Pharmacokinetics after oral administration, human; details: in vivo, 100 mg
[17] = system: HSV-2; details: day 3 to day 7 postinfection, cited from earlier work
[18] = system: other herpesviruses; details: cited from earlier work
[19] = system: acyclovir resistant, mucocutaneous HSV infection; details: preliminary data, cited from earlier work
[20] = system: HSV-2; details: cited from earlier work; for recurrence rate per 10-day period: early treatment days 0–4, follow-up up to 85 days, control 1.0; for time to return to a disease score of zero: control 14 days
[21] = system: two human helicases, one nuclear and one located in the mitochondria; test: Inhibition of human helicases; type: biochemical; details: one nuclear and one mitochondrial human helicase
[22] = system: HSV-1; details: cited from earlier work
[23] = system: HSV-1; details: 24 h after heat stress; two oral doses of 50 mg/kg; controls 1.4 × 10^6; cited from earlier work
[24] = compared with other salts and salt/hydrates; cited from earlier work
[25] = Physicochemical properties of pritelivir mesylate monohydrate; details: 50 for the classification system
[26] = after administration of its prodrug valacyclovir in experimental animals; cited from earlier work
[27] = cited from earlier work

Compound: Cc1nc(N(C)C(=O)Cc2ccc(-c3ccccn3)cc2)sc1S(N)(=O)=O [Compound 16, pritelivir]
- share of elimination by nonenzymatic hydrolysis [1]: more than 50%
- in vivo activity / efficacy [2]: excellent in vivo activity
- potency factor vs ganciclovir [3]: 8 fold
- efficacy vs valacyclovir in viral shedding rate and days with lesions [4]: superior efficacy vs valacyclovir
- cytotoxicity [5]: lack of cytotoxicity
- efficacy compared with valacyclovir [6]: superior efficacy
- genotoxic potential [7]: nongenotoxic
- half-life [8]: ≥ 5 h
- frequency of resistant HSV mutants [9]: 0.5 to 4.5 × 10^–6
- efficacy against HSV-1 mutant without wild-type mixture ([10]; mutant alone, even at 60 mg/kg): practically ineffective
- outcome of high-dose extended treatment ([10]; pritelivir-resistant HSV-1 strain, 60 mg/kg for 8 days): prevented mortality and weight loss
- influence on lesion score and virus shedding ([10]; pritelivir-resistant HSV-1 strain, oral 10 mg/kg, day 1 to day 4): only marginal
- effectiveness on lesion score and virus shedding ([10]; oral 5 mg/kg): largely
- effectiveness on lesion score and virus shedding ([10]; oral 10 mg/kg): fully
- potency factor vs ganciclovir [11]: 3 fold
- half-life [12]: ≥ 22 h
- solubility [13]: much better solubility
- b.i.d. dose at which 3-week mortality was already decreased [14]: 0.3 mg/kg
- 3-week mortality [15]: no mortality
- half-life [16]: 60 to 70 h
- recurrence of lesion score after treatment ([17]; oral 15 or 60 mg/kg t.i.d.): no such recurrence was observed
- activity against other herpesviruses [18]: only weak (if any) activity
- subjects whose lesions improved but did not heal completely ([19]; of the 23 subjects treated): 4 subjects
- tolerability [19]: well tolerated without significant adverse effects
- recurrence rate per 10-day period ([20]; 20 mg/kg b.i.d.): 0.4
- recurrence rate per 10-day period ([20]; 30 mg/kg b.i.d.): 0.3
- decrease of viral shedding compared to controls ([20]; day 2 postinfection, vaginal swabs, 20 mg/kg b.i.d.): 3 orders of magnitude
- viral load in sacral dorsal root ganglia ([20]; days 7, 25 and 85 postinfection, vs valacyclovir and control groups): considerably lower
- time to return to a disease score of zero ([20]; oral 20 mg/kg b.i.d., day 4 to day 14 postinfection): 7 days
- inhibition of human helicases [21]: Neither of these enzymes was inhibited
- EC50 ([22]; read-out: in vitro EC50, wild-type HSV-1, wild-type): 30 nM
- higher in vitro ED50 of pritelivir-resistant HSV-1 strain ([22]; resistant strain vs wild-type): 27 fold
- mean viral genome copy number in trigeminal ganglia [23]: 2.4 × 10^2

Compound: Cc1nc(N(C)C(=O)Cc2ccc(-c3c(C)noc3C)cc2)sc1S(N)(=O)=O [Compound 14]
- solubility [13]: improved solubility

Compound: Cc1nc(N(C)C(=O)Cc2ccc(-c3ccccc3)cc2)sc1S(N)(=O)=O [Compound 9]
- in vivo activity / efficacy [2]: high in vitro and in vivo activity
- solubility [13]: solubility remained a challenging issue

Compound: CS(=O)(=O)O.Cc1nc(N(C)C(=O)Cc2ccc(-c3ccccn3)cc2)sc1S(N)(=O)=O.O [Pritelivir mesylate monohydrate]
- stability under forced degradation conditions [24]: highest stability
- BCS class [25]: BCS class 2

Compound: Nc1nc2c(ncn2COCCO)c(=O)[nH]1 [acyclovir]
- acyclovir bioavailability [26]: 58–84%

Compound: Nc1nc2c(ncn2CCC(CO)CO)c(=O)[nH]1 [penciclovir]
- half-life of penciclovir ([27]; after dosing with the prodrug famciclovir): 2.0 to 2.5 h
- bioavailability ([27]; human, penciclovir via famciclovir): 60–77%

Compound: CNS(=O)(=O)c1sc(N(C)C(=O)Nc2ccc(-c3ccccc3)cc2)nc1C [Compound 3]
- in vivo activity / efficacy [2]: superior in vivo efficacy than valacyclovir

Compound: Cc1nc(N(C)C(=O)Cc2ccc(-c3cccnc3)cc2)sc1S(N)(=O)=O [Compound 15]
- solubility [13]: less soluble

Compound: Cc1nc(N(C)C(=O)Cc2ccc(-n3cccn3)cc2)sc1S(N)(=O)=O [Compound 13]
- solubility [13]: improved solubility

Compound: CC(C)[C@H](N)C(=O)OCCOCn1cnc2c(=O)nc(N)[nH]c21 [valacyclovir, reference compound]
- mortality ([17]; oral 60 mg/kg t.i.d. (lower dose level)): 100%
- recurrence rate per 10-day period ([20]; 100 mg/kg t.i.d. or 150 mg/kg b.i.d.): 0.9
- time to return to a disease score of zero ([20]; 150 mg/kg b.i.d., delayed treatment): 12 days
- effect on viral shedding ([20]; valacyclovir 150 mg/kg b.i.d., vaginal swabs): no discernible effect
